{"source": "patent US20190098891A1", "about": "“Compositions and Methods for Biopreservation” (Augusta University Research Institute, Inc., priority 2017, published 2019)", "system": "mouse M II oocytes", "assay": "Post-rehydration survival of mouse M II oocytes after fast or slow desiccation", "type": "cell-based", "text": "A phosphate-buffered saline (PBS) containing 0.4% bovine serum albumin (BSA) was used as a starting desiccation medium based on its simple composition that was preferable to not complicate the experimental outcome due to components of a complex desiccation medium. Further, the objective of these experiments was to test the effect of the desiccation duration without bringing specimen into a glassy state.\nSlow and fast desiccation are can be achieved by adjusting several variables (e.g., temperature and flow rate of dry nitrogen gas, temperature of stage warmer, droplet size, etc.). Slow and fast desiccation of M II oocytes were achieved by changing the flow rate of dry nitrogen gas using a flowmeter (Gilmont Instruments) while performing the experiments at ambient temperature.\nThe fast protocol required approximately 9 minutes to desiccate a sample to a residual moisture content of 5% while the same residual moisture content was obtained in ca. 20 minutes in the case of slow desiccation. […]\nThe residual moisture content (% RM) of samples was determined gravimetrically using the following formula: […]"}
{"smiles": "OC[C@H]1O[C@H](O[C@H]2O[C@H](CO)[C@@H](O)[C@H](O)[C@H]2O)[C@H](O)[C@@H](O)[C@@H]1O", "note": "[trehalose]", "values": [{"measurement": "desiccation tolerance", "value": "improves the desiccation tolerance"}]}
